From US20080299108A1, “Peptides for Diagnostic and Therapeutic Methods for Celiac Sprue” (priority 2005, published 2008)

Tests used:
[1] = tested on: pancreatic proteases (elastase, trypsin, chymotrypsin); type: in vitro ADME
Excerpt: Because BBM exopeptidases are restricted to N- or C-terminal processing, it was investigated if generation of additional free peptide ends by pancreatic enzymes would accelerate digestion.

[2] = target: T1, tissue transglutaminase (tTGase) (Homo sapiens, UniProt P21980); details: cited from earlier work
T1 sequence (P21980 1-687): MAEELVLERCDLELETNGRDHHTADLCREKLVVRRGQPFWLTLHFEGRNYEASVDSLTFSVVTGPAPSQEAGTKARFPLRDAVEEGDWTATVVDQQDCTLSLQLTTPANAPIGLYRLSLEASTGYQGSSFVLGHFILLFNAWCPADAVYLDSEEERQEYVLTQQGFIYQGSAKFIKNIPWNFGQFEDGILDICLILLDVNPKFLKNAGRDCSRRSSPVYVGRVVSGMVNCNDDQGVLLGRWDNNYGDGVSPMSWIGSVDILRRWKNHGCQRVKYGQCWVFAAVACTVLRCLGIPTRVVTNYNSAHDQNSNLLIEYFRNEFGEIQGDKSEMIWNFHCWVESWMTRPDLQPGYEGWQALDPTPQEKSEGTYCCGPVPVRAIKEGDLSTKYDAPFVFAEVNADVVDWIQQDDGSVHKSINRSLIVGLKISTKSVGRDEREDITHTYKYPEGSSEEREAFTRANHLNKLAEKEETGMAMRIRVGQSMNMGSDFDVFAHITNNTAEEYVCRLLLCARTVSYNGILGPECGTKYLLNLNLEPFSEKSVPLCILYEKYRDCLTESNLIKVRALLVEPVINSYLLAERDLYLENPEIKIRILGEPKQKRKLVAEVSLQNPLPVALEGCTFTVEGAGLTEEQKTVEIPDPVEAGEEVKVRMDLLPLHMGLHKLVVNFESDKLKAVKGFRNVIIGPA

## PQPQLPYPQPQLPY
[1]
  proteolysis with trypsin or chymotrypsin: No proteolysis was detected
[1]; elastase at a high (non-physiological) concentration of 100 ng/μl
  hydrolysis by elastase: capable of hydrolyzing
[2]
  specificity of tTGase relative to its target peptide sequence in fibrinogen: 5 fold
